The results in this text go back to US8183383B2, “Protein tyrosine phosphatase 1B inhibitor, preparation methods and uses thereof” (Shanghai Institute of Materia Medica, Chinese Academy of …, priority 2007, dated 2012).

The target of this assay is T1, hPTP1B (Homo sapiens, UniProt P18031).
T1 construct: The catalytic structural domain of hPTP1B was expressed in E-coli system by a molecular biology protocol; made in house; host or cells: E. coli
T1 sequence (P18031 3-277 limits assumed): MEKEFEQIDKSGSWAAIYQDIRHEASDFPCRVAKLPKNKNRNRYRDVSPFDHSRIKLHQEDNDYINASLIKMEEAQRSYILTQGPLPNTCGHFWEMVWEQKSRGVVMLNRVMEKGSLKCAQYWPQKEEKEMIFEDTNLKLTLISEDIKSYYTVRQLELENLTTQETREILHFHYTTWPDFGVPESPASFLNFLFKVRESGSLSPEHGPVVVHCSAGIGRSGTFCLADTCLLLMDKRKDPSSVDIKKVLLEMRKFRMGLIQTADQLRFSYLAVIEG
As to the kind of experiment: PTP1B inhibition test (pNPP hydrolysis, absorption at 410 nm). It is filed as biochemical. The settings on record: recombinant hPTP1B catalytic domain 40 nM, 2 mM pNPP, pH 7.0, 2% DMSO; read-out: IC50(μM), inhibitory activity of the test compounds against PTP1B. The source says: 1) Test principle: The catalytic structural domain of hPTP1B was expressed in E-coli system by a molecular biology protocol. The purified hPTP1B recombinant protein can hydrolyze the phosphoester linkage of the pNPP substrate to obtain a product which has a strong light absorption at 410 nm. Therefore, the variation of the enzyme activity and the inhibitory activity of a compound against the enzyme can be observed by directly monitoring the changes in the light absorption at 410 nm. A typical activity assay system is as follows: 50 mM Mops, PH 7.0, 1 mM EDTA, 2 mM DTT, 2 mM PNPP, 2% DMSO, 40 nM hPTP1B.
2) Measuring Index: The light absorption was dynamically measured at 410 nm for 3 min. The slope of the first-order reaction of the dynamic curve thereof was considered as the activity index of the enzymes.
3) Measurement: • 1. 1 mg sample was dissolved in 200 μL DMSO. To each wall of the A2-H11 of a 96-wells polypropylene plate, 20 μL of the solution was added, followed by addition of 80 μL DMSO. The plate was used as mother plate. • 2. To each corresponding wall of a 96-wells polypropylene plate, 2 μL of sample was added with a Biomek 2000 automation workstation. The plate was used as daughter plate for screening. • 3. To each wall of A1-D1 and E12-H12, 2 μL, DMSO was added. These walls were regarded as 100% of enzyme activity for control. • 4. To each wall of A12-D12 and E1-H1, 2 μL positive control with different concentrations (four concentrations prepared by double-fold dilution from […]) was added respectively. • 5. To each wall of A1-H12, 88 μL Assay mix was added respectively. • 6. To each wall of A1-H12, 10 μL hPTP1B was added respectively. • 7. The light absorption was measured at 410 nm for 3 min on a SpectraMAX 340 spectrometer. • 8. Exporting the output into a TXT file, and opening the file with Excel. The average of the Vmax values of A1-D1 and E12-H12 was considered as 100% of enzyme activity.
4) Results: The screening results were the % inhibitory rate against the enzyme when the compound concentration was 20 μg/mL. 1050 value was calculated according to a conventional screening when the inhibitory rate exceeded 50%. The […] value of the positive control, 4-[4-(4-oxalyl-phenoxymethyl)-benzyloxy]-phenyl-oxo-acetic acid, is 5.4 μM [Christopher T. Seto, et al. J. Med. Chem., 2002, 45, 3946-3952].
Take `CCOC(=O)/C(C)=C\C(C)=C\c1csc([C@H](Cc2ccccc2)NC(=O)C2CCCCC2)n1` [WY466h]: the IC50 was 34.2 µM. With `CCOC(=O)/C(C)=C\C(C)=C\c1csc([C@H](Cc2ccc(O)cc2)NC(=O)C2CCCCC2)n1` [WY482h], the IC50 was determined as 27.8 µM. For `CCOC(=O)/C(C)=C\C(C)=C\c1csc([C@H](Cc2ccc(OC)cc2)NC(=O)C2CCCCC2)n1` [WY496h] the value was 30.1 µM; for `C=CCc1cc(C[C@H](NC(=O)C2CCCCC2)c2nc(/C=C(C)/C=C(/C)C(=O)OCC)cs2)ccc1O` [WY522b], more than 40 µM.

On to `C=CCOc1ccc(C[C@H](NC(=O)C2CCCCC2)c2nc(/C=C(C)/C=C(/C)C(=O)OCC)cs2)cc1` [WY522h], for which the IC50 stood at 34.4 µM. As for `CCOC(=O)/C(C)=C\C(C)=C\c1csc([C@H](Cc2ccc(OCCO)cc2)NC(=O)C2CCCCC2)n1` [WY526h], the IC50 is more than 40 µM. The result for `CCOC(=O)/C(C)=C\C(C)=C\c1csc([C@H](Cc2ccc(OCc3ccccc3)cc2)NC(=O)C2CC2)n1` [WY530s] reads more than 35 µM; that for `CCCCOc1ccc(C[C@H](NC(=O)C2CCCCC2)c2nc(/C=C(C)/C=C(/C)C(=O)OCC)cs2)cc1` [WY538h], 22.1 µM.

As to `CCOC(=O)/C(C)=C\C(C)=C\c1csc([C@H](Cc2ccc(OCC(=O)O)cc2)NC(=O)C2CCCCC2)n1` [WY540a], the half-maximal inhibitory concentration (IC50) is more than 40 µM. The result for `CCOC(=O)/C(C)=C\C(C)=C\c1csc([C@H](Cc2ccc(-c3ccccc3)cc2)NC(=O)C2CCCCC2)n1` [WY542h] reads more than 40 µM; that for `CC(=C\c1csc([C@H](Cc2ccc(OCc3ccccc3)cc2)NC(=O)C2CCCCC2)n1)/C=C(\C)C(=O)O` [WY544-2], 11.3 µM.

Regarding `C/C(=C/C(C)=C/c1csc([C@H](Cc2ccc(OCc3ccccc3)cc2)NC(=O)C2CCCCC2)n1)C(=O)O` [WY544a], the IC50 was 4.4 µM.

As to `CCOC(=O)/C(C)=C\C(C)=C\c1csc([C@H](Cc2ccc(OCc3ccccc3)cc2)NC(=O)C2CCC2)n1` [WY544s], the concentration for half-maximal inhibition (IC50) was more than 40 µM.

On to `CCOC(=O)/C(C)=C\C(C)=C\c1csc([C@H](Cc2ccc(OCc3ccccc3)cc2)NC(=O)C(=O)CO)n1` [WY548], for which the concentration for half-maximal inhibition (IC50) is more than 35 µM.

As for `CCOC(=O)/C(C)=C\C(C)=C\c1csc([C@H](Cc2ccc(OCc3ccccc3)cc2)NC(=O)c2ccco2)n1` [WY556s], the IC50 was more than 40 µM. On to `CCOC(=O)/C(C)=C\C(C)=C\c1csc([C@H](Cc2ccc(OCc3ccccc3)cc2)NC(=O)C(=O)C2CC2)n1` [WY558], for which the 50% inhibitory concentration (IC50) worked out at 8.14 µM. For `C/C(=C/C(C)=C/c1csc([C@H](Cc2ccc(OCc3ccccc3)cc2)NC(=O)CC2CCCCC2)n1)C(=O)O` [WY558a] the value was 9.32 µM; for `CCOC(=O)/C(C)=C\C(C)=C\c1csc([C@H](Cc2ccc(OCc3ccccc3)cc2)NC(=O)C(F)(F)F)n1` [WY558f], more than 35 µM; for `CCOC(=O)/C(C)=C\C(C)=C\c1csc([C@H](Cc2ccc(OCc3ccccc3)cc2)NC(=O)C2CCCC2)n1` [WY558s], 12.7 µM. The result for `CCOC(=O)/C(C)=C\C(C)=C\c1csc([C@H](Cc2ccc(OCc3ccccc3)cc2)NC(=O)C2CCCO2)n1` (stereo partly shown) [WY560s] reads more than 40 µM; that for `CCOC(=O)/C(C)=C\C(C)=C\c1csc([C@H](Cc2ccc(OCc3ccccc3)cc2)NC(=O)CC(C)(C)C)n1` [WY560t], 20.2 µM; that for `CCOC(=O)/C(C)=C\C(C)=C\c1csc([C@H](Cc2ccc(OCc3ccccc3)cc2)NC(=O)C(=O)COC)n1` [WY562], 10.2 µM. The result for `CCOC(=O)/C(C)=C\C(C)=C\c1csc([C@H](Cc2ccc(OCc3ccccc3)cc2)NC(=O)COC(C)=O)n1` [WY562s] reads more than 40 µM. With `CCOC(=O)/C(C)=C\C(C)=C\c1csc([C@H](Cc2ccc(OCc3ccccc3)cc2)NC(=O)c2ccccc2)n1` [WY566s], the IC50 worked out at 15.2 µM. The result for `CCOC(=O)COc1ccc(C[C@H](NC(=O)C2CCCCC2)c2nc(/C=C(C)/C=C(/C)C(=O)OCC)cs2)cc1` [WY568h] reads more than 40 µM; that for `CCOC(=O)/C(C)=C/C(C)=C/c1csc([C@H](Cc2ccc(OCc3ccccc3)cc2)NC(=O)C2CCCCC2)n1` [WY572-2], 6.38 µM. The result for `CCOC(=O)/C(C)=C/C(C)=C\c1csc([C@H](Cc2ccc(OCc3ccccc3)cc2)NC(=O)C2CCCCC2)n1` [WY572-3] reads 8.69 µM; that for `CCOC(=O)/C(C)=C\C(C)=C/c1csc([C@H](Cc2ccc(OCc3ccccc3)cc2)NC(=O)C2CCCCC2)n1` [WY572-4], 7.9 µM. For the compound `CCOC(=O)/C(C)=C\C(C)=C\c1csc([C@H](Cc2ccc(OCc3ccccc3)cc2)NC(=O)C(=O)C2CCC2)n1` [WY572], the IC50 worked out at 8.52 µM. Consider `CCOC(=O)/C(C)=C\C(C)=C\c1csc([C@H](Cc2ccc(OCc3ccccc3)cc2)NC(=O)C2CCCCC2)n1` [WY572s], for which the IC50 is 6.29 µM. The result for `CCOC(=O)/C(C)=C\C(C)=C\c1csc([C@H](Cc2ccc(O)c(Cc3ccccc3)c2)NC(=O)C2CCCCC2)n1` [WY572t] reads 4.47 µM; that for `CCOC(=O)/C(C)=C\C(C)=C\c1csc([C@H](Cc2ccc(OCc3ccncc3)cc2)NC(=O)C2CCCCC2)n1` [WY573h4], more than 40 µM; that for `CCOC(=O)/C(C)=C\C(C)=C\c1csc([C@H](Cc2ccc(OCc3ccccn3)cc2)NC(=O)C2CCCCC2)n1` [WY573h], more than 35 µM. With `CCCCC(=O)C(=O)N[C@@H](Cc1ccc(OCc2ccccc2)cc1)c1nc(/C=C(C)/C=C(/C)C(=O)OCC)cs1` [WY574], the IC50 came out at 8.58 µM.

Consider `CCOC(=O)/C(C)=C\C(C)=C\c1csc([C@H](Cc2ccc(OCc3ccsc3)cc2)NC(=O)C2CCCCC2)n1` [WY578h], for which the IC50 was determined as 12 µM.

For the compound `CCOC(=O)/C(C)=C\C(C)=C\c1csc([C@H](Cc2ccc(OCc3ccccc3)cc2)NC(=O)Cc2ccccc2)n1` [WY580s], the half-inhibitory concentration (IC50) came to 23.1 µM.

For `CCOC(=O)/C(C)=C\C(C)=C\c1csc([C@H](Cc2ccc(OC(C)C(=O)OCC)cc2)NC(=O)C2CCCCC2)n1` (stereo partly shown) [WY582h], the 50% inhibitory concentration (IC50) is more than 35 µM.

On to `CCOC(=O)/C(C)=C\C(C)=C\c1csc([C@H](Cc2ccc(OCc3ccccc3)cc2)NC(=O)C(=O)c2ccc[nH]2)n1` [WY583], for which the concentration for half-maximal inhibition (IC50) was more than 35 µM. On to `COC(=O)/C(C)=C\C(C)=C\c1csc([C@H](Cc2ccc(OCc3ccccc3)cc2)NC(=O)C(O)c2ccccc2)n1` (stereo partly shown) [WY584], for which the 50% inhibitory concentration (IC50) was more than 35 µM. On to `CCOC(=O)/C(C)=C\C(C)=C\c1csc([C@H](Cc2ccc(OCc3ccccc3)cc2)NC(=O)c2ccc(F)cc2)n1` [WY584s], for which the IC50 was more than 35 µM.

Take `CCOC(=O)/C(C)=C\C(C)=C\c1csc([C@H](Cc2ccc(OCc3ccccc3)cc2)NC(=O)C(=O)C2CCCC2)n1` [WY586]: the half-inhibitory concentration (IC50) was 11 µM. The result for `CCOC(=O)/C(C)=C\C(C)=C\c1csc([C@H](Cc2ccc(OCc3ccccc3)cc2)NC(=O)C2CCCCC2=O)n1` (stereo partly shown) [WY586d] reads 8.44 µM. `CCOC(=O)/C(C)=C\C(C)=C\c1csc([C@H](Cc2ccc(OCCc3ccccc3)cc2)NC(=O)C2CCCCC2)n1` [WY586h]: the concentration for half-maximal inhibition (IC50) is more than 35 µM. The result for `CCOC(=O)/C(C)=C\C(C)=C\c1nc([C@H](Cc2ccc(OCc3ccccc3)cc2)NC(=O)C2CCCCC2)sc1C` [WY586z] reads 4.86 µM. The result for `CCOC(=O)/C(C)=C\C(C)=C\c1csc([C@H](Cc2ccc(OCc3ccccc3)cc2)NC(=O)C2CCN(C)CC2)n1` [WY587s] reads more than 35 µM.

On to `CCOC(=O)/C(C)=C\C(C)=C\c1csc([C@H](Cc2ccc(OCc3ccccc3)cc2)NC(=O)C(=O)C2CCCO2)n1` (stereo partly shown) [WY588], for which the IC50 is 10.4 µM. `CCOC(=O)/C(C)=C\C(C)=C\c1csc([C@H](Cc2ccc(OCc3cccc(F)c3)cc2)NC(=O)C2CCCCC2)n1` [WY590h3]: the IC50 was found to be 24.1 µM. With `CCOC(=O)/C(C)=C\C(C)=C\c1csc([C@H](Cc2ccc(OCc3ccc(F)cc3)cc2)NC(=O)C2CCCCC2)n1` [WY590h], the IC50 worked out at 25.6 µM. Regarding `CCOC(=O)/C(C)=C\C(C)=C\c1csc([C@H](Cc2ccc(OCc3ccccc3F)cc2)NC(=O)C2CCCCC2)n1` [WY592h2], the half-maximal inhibitory concentration (IC50) is 31.8 µM.
